Legend:
[1] = target: T1, Serine/threonine-protein kinase B-raf (Homo sapiens, UniProt P15056, V600E); test: Inhibition of full-length B-Raf V600E mutant (unknown origin)
[2] = target: T1, Serine/threonine-protein kinase B-raf; test: Inhibition of B-Raf V600E mutant in human Malme-3M cells assessed as basal ERK phosphorylation; assay type: cell-based
[3] = Apparent permeability of the compound from apical to basolateral direction in pig LLC-PK1 cells; assay type: ADME, cell-based, Sus scrofa
[4] = Clearance in mouse at 2.5 mg/kg, iv; assay type: ADME, organism-based; parameters: dose 2.5 mg/kg, route intravenous; conditions: in vivo
[5] = Volume of distribution in mouse; assay type: ADME, organism-based; conditions: in vivo
[6] = AUC in mouse at 30 mg/kg, po; assay type: ADME, organism-based; parameters: dose 30 mg/kg, route oral; conditions: plasma
[7] = Oral bioavailability in mouse at 30 mg/kg; assay type: ADME, organism-based; conditions: in vivo

T1 sequence (P15056 2-766 V600E limits assumed): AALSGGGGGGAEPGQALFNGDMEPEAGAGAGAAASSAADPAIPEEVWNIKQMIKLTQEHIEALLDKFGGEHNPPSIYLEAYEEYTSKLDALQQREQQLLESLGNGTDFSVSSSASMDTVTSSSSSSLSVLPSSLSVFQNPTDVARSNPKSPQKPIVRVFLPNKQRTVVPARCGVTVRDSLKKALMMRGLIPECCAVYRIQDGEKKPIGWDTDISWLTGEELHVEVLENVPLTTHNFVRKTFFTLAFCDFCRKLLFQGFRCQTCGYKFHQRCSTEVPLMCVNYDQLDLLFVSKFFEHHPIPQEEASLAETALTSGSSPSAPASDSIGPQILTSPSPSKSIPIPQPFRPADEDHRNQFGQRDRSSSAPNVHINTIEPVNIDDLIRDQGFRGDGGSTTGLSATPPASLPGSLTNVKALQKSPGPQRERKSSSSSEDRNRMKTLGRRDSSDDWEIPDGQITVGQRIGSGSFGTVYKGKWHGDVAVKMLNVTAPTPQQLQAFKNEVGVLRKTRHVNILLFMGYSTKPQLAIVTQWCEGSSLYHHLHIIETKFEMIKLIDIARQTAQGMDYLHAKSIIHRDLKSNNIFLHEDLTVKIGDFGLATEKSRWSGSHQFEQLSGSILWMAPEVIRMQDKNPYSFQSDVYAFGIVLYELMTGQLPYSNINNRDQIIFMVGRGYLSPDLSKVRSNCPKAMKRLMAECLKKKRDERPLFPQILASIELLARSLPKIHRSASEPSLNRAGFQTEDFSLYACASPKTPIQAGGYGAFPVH

| SMILES | IC50 [1] [nM] | IC50 [2] [nM] | other results |
| --- | --- | --- | --- |
| CCCS(=O)(=O)Nc1ccc(F)c(Nc2ccc3ncccc3c2)c1F | 314 | 6250 |  |
| CCCS(=O)(=O)Nc1ccc(F)c(Nc2ccc3ncnc(N(C)C)c3c2)c1Cl | 100 | 878 |  |
| CCCS(=O)(=O)Nc1ccc(F)c(Nc2ccc3ncn(C)c(=O)c3c2)c1Cl | 2 | 26 | Papp A→B [3]: > 8 ×10⁻⁶ cm/s; clearance [4]: 4.7 mL/min/kg; Vd [5]: 0.49 L/kg; AUC [6]: 282 µM·h; bioavailability [7]: 112% |
| CCCS(=O)(=O)Nc1ccc(Cl)c(Nc2ccc3ncn(C)c(=O)c3c2)c1C#N | 0.2 | 16 |  |
| CCCS(=O)(=O)Nc1ccc(Cl)c(Nc2ccc3ncn(C)c(=O)c3c2)c1F | 12 | 116 |  |
| CCCS(=O)(=O)Nc1ccc(Cl)c(N(C)c2ccc3ncn(C)c(=O)c3c2)c1F | 3 | 84 |  |
| CCCS(=O)(=O)Nc1ccc(F)c(Nc2ccc3ncnc(NC)c3c2)c1Cl | 11 | 132 |  |
| CCCS(=O)(=O)Nc1cccc(Oc2ccc3ncn(C)c(=O)c3c2)c1C#N | 0.3 | 7 |  |
| CCCS(=O)(=O)Nc1ccc(F)c(Nc2ccc3ncncc3c2)c1F | 33 | 118 |  |
| CCCS(=O)(=O)Nc1ccc(F)c(Nc2ccc3ncncc3c2)c1Cl | 4 | 44 |  |
| CCCS(=O)(=O)Nc1ccc(F)c(N(C)c2ccc3ncn(C)c(=O)c3c2)c1Cl | 8 | 114 |  |
| CCCS(=O)(=O)Nc1ccc(F)c(Nc2ccc3nccnc3c2)c1Cl | 25 | 814 |  |
| CCCS(=O)(=O)Nc1ccc(C)c(Nc2ccc3ncn(C)c(=O)c3c2)c1 | 851 |  |  |
| CCCS(=O)(=O)Nc1ccc(F)c(Nc2ccc3ncn(C)c(=O)c3c2)c1F | 19 | 55 |  |
| CCCS(=O)(=O)Nc1ccc(F)c(N(CC)c2ccc3ncn(C)c(=O)c3c2)c1Cl | 30 | 603 |  |
| CCCS(=O)(=O)Nc1ccc(F)c(Nc2ccc3ncn(-c4cnn(C)c4)c(=O)c3c2)c1Cl | 2 | 18 |  |
| CCCS(=O)(=O)Nc1ccc(F)c(Nc2ccc3ncnc(OC)c3c2)c1Cl | 16 | 733 |  |
| CCCS(=O)(=O)Nc1ccc(F)c(N(CC)c2ccc3ncn(C)c(=O)c3c2)c1F | 26 | 110 |  |
| CCCS(=O)(=O)Nc1ccc(F)c(Oc2ccc3ncn(C)c(=O)c3c2)c1C#N | 0.2 | 3 |  |
| CCCS(=O)(=O)Nc1ccc(F)c(Nc2ccc3ncn(Cc4ccccc4)c(=O)c3c2)c1Cl | 17 | 581 |  |
| CCCS(=O)(=O)Nc1ccc(Cl)c(Oc2ccc3ncn(C)c(=O)c3c2)c1C#N | 0.2 | 15 |  |
| CCCS(=O)(=O)Nc1ccc(F)c(N(C)c2ccc3ncn(C)c(=O)c3c2)c1F | 11 | 62 |  |

Source: ChEMBL document CHEMBL3232845 (Bioorg Med Chem Lett, 2014)
